pIC50: −log10 of the molar value. Structures can show the parent of a compound that is named as a salt.
Tests used:
DDR1 kinase [1] = biological target: T1, DDR1 kinase (Homo sapiens, UniProt Q08345); test: Evaluation of DDR1 kinase inhibition in DDR1-expressing U2OS cells (type I collagen stimulation, PathHunter detection); type: cell-based; parameters: host or cells: U2OS; settings: type I collagen 50 µg/mL stimulation, duplicate, read-out: DDR-1 IC50
Protocol: The solution was further diluted in an E-MEM medium (Fujifilm Wako Pure Chemicals, 051-07615) containing 10% fetal bovine serum (FBS, Gibco, 10270106) to 60000, 6000, 600, 60, 6, and 0.6 nM to prepare test substance solutions. 2. […] On the following day, after the plate was left at room temperature for 1 hour, a detection solution was added to the wells at […] according to the handling instructions for the PathHunter® Detection Kit (DiscoverX, 93-0001), and then incubated at room temperature for 2 hours. After the incubation, a luminescence intensity was measured by Envision (Perkin-Elmer). Tests were performed in duplicate. 3.
Target sequence in this assay (Q08345 19-913): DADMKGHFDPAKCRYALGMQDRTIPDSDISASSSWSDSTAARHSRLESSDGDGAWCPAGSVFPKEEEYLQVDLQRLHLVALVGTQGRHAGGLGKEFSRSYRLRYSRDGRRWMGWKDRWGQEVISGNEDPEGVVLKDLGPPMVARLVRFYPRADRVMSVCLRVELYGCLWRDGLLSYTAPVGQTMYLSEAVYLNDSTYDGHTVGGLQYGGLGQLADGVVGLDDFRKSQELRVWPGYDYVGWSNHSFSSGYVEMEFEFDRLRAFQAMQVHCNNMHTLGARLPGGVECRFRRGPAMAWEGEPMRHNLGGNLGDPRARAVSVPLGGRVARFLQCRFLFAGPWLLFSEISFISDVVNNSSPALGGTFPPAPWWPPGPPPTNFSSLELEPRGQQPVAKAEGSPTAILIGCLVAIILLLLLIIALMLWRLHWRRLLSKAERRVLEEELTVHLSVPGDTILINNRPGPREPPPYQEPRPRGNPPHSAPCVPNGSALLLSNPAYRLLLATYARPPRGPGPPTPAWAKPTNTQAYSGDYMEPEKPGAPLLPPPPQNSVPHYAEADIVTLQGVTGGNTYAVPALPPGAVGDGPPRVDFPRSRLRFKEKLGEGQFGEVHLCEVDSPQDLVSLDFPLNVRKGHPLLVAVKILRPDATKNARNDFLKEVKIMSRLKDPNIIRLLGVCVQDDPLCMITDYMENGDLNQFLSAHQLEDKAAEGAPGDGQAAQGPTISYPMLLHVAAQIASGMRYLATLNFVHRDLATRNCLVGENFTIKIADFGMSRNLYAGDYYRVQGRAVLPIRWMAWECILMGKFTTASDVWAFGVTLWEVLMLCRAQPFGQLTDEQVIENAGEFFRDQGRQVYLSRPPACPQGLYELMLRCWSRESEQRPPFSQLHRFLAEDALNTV

DDR1 kinase [2] = biological target: T1, DDR1 kinase; test: Evaluation of DDR1 kinase inhibition (LANCE Ultra TR-FRET kinase assay); type: biochemical; parameters: purchased Carna Biosciences 08-113; settings: DDR1 protein 0.5 nM, LANCE Ultra ULight-poly GAT substrate, 2 hours at room temperature, duplicate; read-out: DDR-1 IC50
Target sequence in this assay (Q08345 19-876 isoform Q08345-2 limits assumed): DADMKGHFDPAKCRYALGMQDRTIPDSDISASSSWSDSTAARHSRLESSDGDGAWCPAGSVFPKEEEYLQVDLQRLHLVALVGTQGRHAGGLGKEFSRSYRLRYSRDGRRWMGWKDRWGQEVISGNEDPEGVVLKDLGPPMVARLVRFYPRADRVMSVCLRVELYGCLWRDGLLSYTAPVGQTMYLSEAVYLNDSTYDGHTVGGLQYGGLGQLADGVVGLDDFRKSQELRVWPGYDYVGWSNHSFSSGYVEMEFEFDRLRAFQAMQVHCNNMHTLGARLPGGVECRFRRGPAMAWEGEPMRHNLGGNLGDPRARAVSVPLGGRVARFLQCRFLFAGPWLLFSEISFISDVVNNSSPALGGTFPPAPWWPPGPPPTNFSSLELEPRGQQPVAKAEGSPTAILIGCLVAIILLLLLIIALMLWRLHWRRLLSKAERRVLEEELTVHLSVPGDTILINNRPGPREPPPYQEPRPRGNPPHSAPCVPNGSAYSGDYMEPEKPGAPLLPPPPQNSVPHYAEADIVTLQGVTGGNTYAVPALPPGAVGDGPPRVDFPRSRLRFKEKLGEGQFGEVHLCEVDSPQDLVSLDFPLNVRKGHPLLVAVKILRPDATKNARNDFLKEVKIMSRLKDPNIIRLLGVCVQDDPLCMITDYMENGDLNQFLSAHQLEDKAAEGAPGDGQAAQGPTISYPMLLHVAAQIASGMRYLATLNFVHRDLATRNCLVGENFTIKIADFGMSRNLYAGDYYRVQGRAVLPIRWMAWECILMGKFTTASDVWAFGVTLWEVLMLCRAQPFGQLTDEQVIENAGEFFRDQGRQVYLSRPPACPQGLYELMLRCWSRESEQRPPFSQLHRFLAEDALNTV

O=C(c1cnc2ccccn12)N1CC(c2nn(CC(=O)N3CCC[C@H]3C(F)(F)F)c3cc(F)cc(F)c23)C1 [Compound E-101]
pIC50 (DDR1 kinase [1]): 6.57 | pIC50 (DDR1 kinase [2]): 7.68

Nc1cc(C(=O)N2CC(c3nn(Cc4cn(Cc5ccccc5)nn4)c4cccc(F)c34)C2)ccn1 [Compound E-35, 4-(3-{1-[(1-benzyl-1H-1,2,3-triazol-4-yl)methyl]-4-fluoro-1H-indazol-3-yl}azetidine-1-carbonyl)pyridin-2-amine hydrochloride]
pIC50 (DDR1 kinase [1]): 5.70 | pIC50 (DDR1 kinase [2]): 7.51

Cc1ccnc2c1c(C1CN(C(=O)c3ccnc(N)c3)C1)nn2CC(=O)N1CCC[C@H]1C(F)(F)F [Compound E-15, 2-{3-[1-(2-aminopyridine-4-carbonyl)azetidin-3-yl]-4-methyl-1H-pyrazolo[3,4-b]pyridin-1-yl}-1-[(2S)-2-(trifluoromethyl)pyrrolidin-1-yl]ethan-1-one]
pIC50 (DDR1 kinase [1]): 5.59 | pIC50 (DDR1 kinase [2]): 6.68

Nc1cc(C(=O)N2CC(c3nn(Cc4nc(C(F)(F)F)no4)c4ccccc34)C2)c(F)cn1 [Compound E-18, 5-fluoro-4-[3-(1-{[3-(trifluoromethyl)-1,2,4-oxadiazol-5-yl]methyl}-1H-indazol-3-yl)azetidine-1-carbonyl]pyridin-2-amine]
pIC50 (DDR1 kinase [1]): 7.59 | pIC50 (DDR1 kinase [2]): 8.16

C[C@@H](N(C)C(=O)Cn1nc(C2CN(C(=O)c3cc(N)ncc3F)C2)c2ccccc21)C(F)(F)F [Compound E-262, 2-{3-[1-(2-amino-5-fluoropyridine-4-carbonyl)azetidin-3-yl]-1H-indazol-1-yl}-N-methyl-N-[(2R)-1,1,1-trifluoropropan-2-yl]acetamide]
pIC50 (DDR1 kinase [1]): 7.70 | pIC50 (DDR1 kinase [2]): 8.03

Nc1cc(C(=O)N2CC(c3cn(CC(=O)N4CCC[C@H]4C(F)(F)F)c4ccccc34)C2)ccn1 [Compound E-11, 2-{3-[1-(2-aminopyridine-4-carbonyl)azetidin-3-yl]-1H-indol-1-yl}-1-[(2S)-2-(trifluoromethyl)pyrrolidin-1-yl]ethan-1-one]
pIC50 (DDR1 kinase [1]): 6.96 | pIC50 (DDR1 kinase [2]): 8.21

O=C(Cn1nc(C2CN(C(=O)c3cc(NC4CC4)ncn3)C2)c2c(F)cc(F)cc21)NCC(F)(F)F [Compound E-31, 2-(3-{1-[6-(cyclopropylamino)pyrimidine-4-carbonyl]azetidin-3-yl}-4,6-difluoro-1H-indazol-1-yl)-N-(2,2,2-trifluoroethyl)acetamide]
pIC50 (DDR1 kinase [1]): 6.16 | pIC50 (DDR1 kinase [2]): 7.68

COC[C@@H]1CCCN1C(=O)Cn1nc(C2CN(C(=O)c3ccnc(N)c3)C2)c2ccccc21 [Compound E-228, 2-{3-[1-(2-aminopyridine-4-carbonyl)azetidin-3-yl}-1H-indazol-1-yl}-1-[(2S)-2-(methoxymethyl)pyrrolidin-1-yl]ethan-1-one]
pIC50 (DDR1 kinase [1]): 7.02 | pIC50 (DDR1 kinase [2]): 8.05

Nc1cc(C(=O)N2CC(c3nn(CC(=O)N4CCO[C@@H](C(F)(F)F)C4)c4cc(F)cc(F)c34)C2)ccn1 [Compound E-73, 2-(3-[1-(2-aminopyridine-4-carbonyl)azetidin-3-yl]-4,6-difluoro-1H-indazol-1-yl}-1-l(2R)-2-(trifluoromethyl)morpholin-4-yl]ethan-1-one hydrochloride]
pIC50 (DDR1 kinase [1]): 7.89 | pIC50 (DDR1 kinase [2]): 8.25

O=C(Cn1nc(C2CN(C(=O)c3ccnc(NC4CC4)c3)C2)c2c(F)cccc21)NCC(F)(F)F [Compound E-65, 2-(3-{1-[2-(cyclopropylamino)pyridine-4-carbonyl]azetidin-3-yl}-4-fluoro-1H-indazol-1-yl)-N-(2,2,2-trifluoroethyl)acetamide hydrochloride]
pIC50 (DDR1 kinase [1]): 7.39 | pIC50 (DDR1 kinase [2]): 8.72

CN(CC(F)(F)F)C(=O)Cn1nc(C2CN(C(=O)c3ccnc(N)n3)C2)c2cc(Cl)ccc21 [Compound E-4, 2-{3-[1-(2-aminopyrimidine-4-carbonyl)azetidin-3-yl]-5-chloro-1H-indazol-1-yl}-N-methyl-N-(2,2,2-trifluoroethyl)acetamide]
pIC50 (DDR1 kinase [1]): 7.26 | pIC50 (DDR1 kinase [2]): 8.70

O=C(Cn1nc(C2CN(C(=O)c3ccnc(NC4CC4)c3)C2)c2c(F)cc(F)cc21)NCC(F)(F)F [Compound E-30, 2-(3-{1-[2-(cyclopropylamino)pyridine-4-carbonyl]azetidin-3-yl}-4,6-difluoro-1H-indazol-1-yl)-N-(2,2,2-trifluoroethyl)acetamide hydrochloride]
pIC50 (DDR1 kinase [1]): 7.13 | pIC50 (DDR1 kinase [2]): 8.39

Nc1cc(C(=O)N2CC(c3nn(CC(=O)N4CCO[C@@H](C(F)(F)F)C4)c4cccc(F)c34)C2)ccn1 [Compound E-95, 2-{3-[1-(2-aminopyridine-4-carbonyl)azetidin-3-yl]-4-fluoro-1H-indazol-1-yl}-1-[(2R)-2-(trifluoromethyl)morpholin-4-yl]ethan-1-one hydrochloride]
pIC50 (DDR1 kinase [1]): 6.32 | pIC50 (DDR1 kinase [2]): 8.11

Cc1nc(N)oc1C(=O)N1CC(c2nn(CC(=O)N3CCC[C@H]3C(F)(F)F)c3cc(F)cc(F)c23)C1 [Compound E-110, 2-{3-{1-(2-amino-4-methyl-1,3-oxazole-5-carbonyl)azetidin-3-yl}-4,6-difluoro-1H-indazol-1-yl}-1-[(2S)-2-(trifluoromethyl)pyrrolidin-1-yl]ethan-1-one]
pIC50 (DDR1 kinase [1]): 6.96 | pIC50 (DDR1 kinase [2]): 7.35

C[C@H](N(C)C(=O)Cn1nc(C2CN(C(=O)c3cc(N)ncc3F)C2)c2ccccc21)C(F)(F)F [Compound E-261, 2-{3-[1-(2-amino-5-fluoropyridine-4-carbonyl)azetidin-3-yl]-1H-indazol-1-yl}-N-methyl-N-[(2S)-1,1,1-trifluoropropan-2-yl]acetamide]
pIC50 (DDR1 kinase [1]): 8.22 | pIC50 (DDR1 kinase [2]): 8.34

Cc1ccc2c(n1)c(C1CN(C(=O)c3ccnc(NC4CC4)c3)C1)nn2CC(=O)N1CCC[C@H]1C(F)(F)F [Compound E-130, 2-(3-(1-[2-(cyclopropylamino)pyridine-4-carbonyl]azetidin-3-yl}-5-methyl-1H-pyrazolo[4,3-b}pyridin-1-yl)-1-[(2S)-2-(trifluoromethyl)pyrrolidin-1-yl]ethan-1-one]
pIC50 (DDR1 kinase [1]): 7.09 | pIC50 (DDR1 kinase [2]): 8.24

Nc1cc(C(=O)N2CC(c3nn(CC(=O)N4CCC[C@H]4C(F)(F)F)c4ccncc34)C2)ccn1 [Compound E-13, 2-{3-[1-(2-aminopyridine-4-carbonyl)azetidin-3-yl]-1H-pyrazolo[4,3-c]pyridin-1-yl]-1-[(2S)-2-(trifluoromethyl)pyrrolidin-1-yl]ethan-1-one hydrochloride]
pIC50 (DDR1 kinase [1]): 5.92 | pIC50 (DDR1 kinase [2]): 7.33

O=C(c1cnc(NC2CC2)s1)N1CC(c2nn(CC(=O)N3CCC[C@H]3C(F)(F)F)c3cc(F)cc(F)c23)C1 [Compound E-98, 2-(3-{1-[2-(cyclopropylamino)-1,3-thiazole-5-carbonyl]azetidin-3-yl]-4,6-difluoro-1H-indazol-1-yl)-1-[(2S)-2-(trifluoromethyl)pyrrolidin-1-yl]ethan-1-one]
pIC50 (DDR1 kinase [1]): 5.43 | pIC50 (DDR1 kinase [2]): 7.07

CCN(CC)C(=O)Cn1nc(C2CN(C(=O)c3cc(N)ncc3F)C2)c2ccccc21 [Compound E-263, 2-{3-[1-(2-amino-5-fluoropyridine-4-carbonyl)azetidin-3-yl]-1H-indazol-1-yl}-N,N-diethylacetamide]
pIC50 (DDR1 kinase [1]): 7.19 | pIC50 (DDR1 kinase [2]): 7.82

N#CC1(NC(=O)Cn2nc(C3CN(C(=O)c4cc(N)ncc4F)C3)c3ccccc32)CC1 [Compound E-244, 2-{3-{1-(2-amino-5-fluoropyridine-4-carbonyl)azetidin-3-yl]-1H-indazol-1-yl}-N-(1-cyanocyclopropyl)acetamide]
pIC50 (DDR1 kinase [1]): 6.38 | pIC50 (DDR1 kinase [2]): 7.39

Nc1cc(C(=O)N2CCC(c3nn(CC(=O)N4CCO[C@H](C(F)(F)F)C4)c4cccc(F)c34)CC2)ccn1 [Compound E-90, 2-{3-[1-(2-aminopyridine-4-carbonyl)piperidin-4-yl]-4-fluoro-1H-indazol-1-yl]-1-[(2S)-2-(trifluoromethyl)morpholin-4-yl]ethan-1-one]
pIC50 (DDR1 kinase [1]): 7.02 | pIC50 (DDR1 kinase [2]): 8.13

Cc1c(C(=O)N2CC(c3nn(CC(=O)N4CCO[C@@H](C(F)(F)F)C4)c4cncc(F)c34)C2)ccnc1N [Compound E-180, 2-{3-[1-(2-amino-3-methylpyridine-4-carbonyl)azetidin-3-yl]-4-fluoro-1H-pyrazolo{3,4-c)pyridin-1-yl}-1-[(2R)-2-(trifluoromethyl)morpholin-4-yl}ethan-1-one]
pIC50 (DDR1 kinase [1]): 5.52 | pIC50 (DDR1 kinase [2]): 7.66

Nc1cc(C(=O)N2CC(c3nn(CC(=O)N4CCC[C@H]4C(F)(F)F)c4cc(F)cc(F)c34)C2)cnn1 [Compound E-16, 2-{3-[1-(6-aminopyridazine-4-carbonyl)azetidin-3-yl]-4,6-difluoro-1H-indazol-1-yl)-1-[(2S)-2-(trifluoromethyl)pyrrolidin-1-yl]ethan-1-one]
pIC50 (DDR1 kinase [1]): 6.14 | pIC50 (DDR1 kinase [2]): 7.82

Nc1ncc(C(=O)N2CC(c3nn(CC(=O)N4CCC[C@H]4C(F)(F)F)c4cc(F)cc(F)c34)C2)o1 [Compound E-105, 2-{3-[1-(2-amino-1,3-oxazole-5-carbonyl)azetidin-3-yl]-4,6-difluoro-1H-indazol-1-yl}-1-[(28)-2-(trifluoromethyl)pyrrolidin-1-yl]ethan-1-one]
pIC50 (DDR1 kinase [1]): 6.43 | pIC50 (DDR1 kinase [2]): 7.10

Cc1ccc2c(n1)c(C1CN(C(=O)c3ccnc(N)c3)C1)nn2CC(=O)N1CCC[C@H]1C(F)(F)F [Compound E-12, 2-{3-[1-(2-aminopyridine-4-carbonyl)azetidin-3-yl]-5-methyl-1H-pyrazolo[4,3-b]pyridin-1-yl}-1-[(2S)-2-(trifluoromethyl)pyrrolidin-1-yl]ethan-1-one]
pIC50 (DDR1 kinase [1]): 6.48 | pIC50 (DDR1 kinase [2]): 8.12
